This is an account of results in US7932384B2, “Reverse-turn mimetics and method relating thereto” (Choongwae Pharma Corporation, priority 2001, dated 2011).

For test [1], the target named is β-catenin/CBP interaction (Homo sapiens, UniProt Q92793). Particulars: Emami et al., Cancer Cell, in press; cited from earlier work.
Test [2] concerns SW480 cells. In words: Soft agar colony formation assay. The class given is cell-based. Particulars: SW480, 0.25-5 μM. How it is done:
The soft agar colony formation assay was conducted with SW480 cells by some modification of the procedure previously described (Moody et al., “A vasoactive intestinal peptide antagonist inhibits non-small cell lung cancer growth,” Proc. Natl. Acad. Sci. USA. 90:4345-49 (1993)).
Each well (35 mm) of a 6-well plate (Nalge Nunc International, Roskide, Denmark) was coated with 1 ml of 0.8% bottom agar in DMEM medium containing 10% fetal bovine serum. After it was solidified, 1 ml of DMEM medium containing 0.4% top agar, 10% fetal bovine serum, compound doubly concentrated, and 5,000 single viable cells was added to each well. The cultures were incubated at 37° C. in humidified 5% CO2 incubator. Colonies in soft agar were monitored daily and photographed after incubation for 8 days. Colonies>60 μm in diameter were counted.

Test [3] has as its system GADPH. In words: Real time RT-PCR gene expression, GADPH. The class given is cell-based. As to conditions: 25 μM, 24 hours; <0.5 significant decrease, >1.5 significant increase. How it is done:
(§1) Real time reverse transcription-PCR analysis was performed according to the protocol provided with the SYBR Green PCR Master Mix Kit (Perkin Elmer Biosystems, Shelton, ST). […] The primers used for the RT-PCR reactions were [NT] and [NT].

The subject of test [4] is HCT116 cells. As to the kind of experiment: Flow cytometric analysis (FACS) of cell cycle, HCT116. The class given is cell-based. As to conditions: HCT116, 25 μM, 24 hours. On the procedure:
(§2) For FACS analysis, approx. 5×10^6 cells from Compound D-treated or vehicle-treated were fixed with 70% chilled ethanol and stored at −20° C. for at least 30 minutes. The cells were washed once with 1×PBS and incubated with propidium iodine (PI) solution (85 μg/ml propidium iodine, 0.1% Nonidet P-40, 10 mg/ml RNAse) for 30 minutes at room temperature. 10,000 stained cells for each sample were acquired using Beckman Coulter EPICS XL-MCL Flow Cytometry and the percentage of cells in different phase of the cell cycle was determined by Expo32 ADC software (Coulter Corporation, Miami, Fla., 33196).
(§3) It has been shown that inhibition of the expression of the cyclin D1 gene causes arrest at the G1/S-phase of the cell cycle (Shintani et al., “Infrequent alternations of RB pathway (Rb-p16INK4A-cyclin D1) in adenoid cystic carcinoma of salivary glands,” Anticancer Res. 20:2169-75 (2000)). […] The cells were subsequently stained with propidium iodide (PI) and analyzed for DNA content by FACS cytofluorometry.
A general note: A flow cytometer gives signals particle by particle.

The subject of test [5] is SW480 cells. In words: Flow cytometric analysis (FACS) of cell cycle, SW480. The class given is cell-based. As to conditions: SW480, 25 μM, 24 hours. On the procedure: as §2, §3
Test [6] has as its system caspase-3/7 in HCT116 cells. As to the kind of experiment: Caspase-3/7 activity assay, HCT116. Type of test: cell-based. Particulars: HCT116, 25 μM, 24 hours, compared to CCD18Co cells. How it is done:
SW480, HCT116, and CCD18Co cells were plated at 10^5 cells per well (96-well plates) for 24 hours prior to treatment. […] 24 hours post treatment, cells were lysed and caspase activity was measured using a caspase-3/7 activity kit (Apo-One Homogeneous caspase-3/7 assay, #G77905, Promega). Relative fluorescence units (RFU) were obtained by subtracting the unit values of the blank (control, without cells) from the experimental measured values.
Caspases are cysteine proteases that are generally activated in a given population of cells triggered by apoptotic stimuli.

The subject of test [7] is PCNA. In words: Real time RT-PCR gene expression, PCNA. The class given is cell-based. As to conditions: 25 μM, 24 hours; <0.5 significant decrease, >1.5 significant increase. On the procedure: as §1
Background: Real-time PCR tracks product formation cycle by cycle.

For test [8], the target named is β-catenin/p300 interaction (Homo sapiens, UniProt Q09472). Particulars: Emami et al., Cancer Cell, in press; cited from earlier work.
Test [9] deals with survivin. As to the kind of experiment: Real time RT-PCR gene expression, Survivin. The class given is cell-based. As to conditions: 25 μM, 24 hours; <0.5 significant decrease, >1.5 significant increase. How it is done:
as §1

Test [10] has as its system TCF/β-catenin reporter gene transcription. As to the kind of experiment: TOPFLASH luciferase assay in differentiated PC-12 PS-1/L286V cells. Particulars: PS-1/L286V mutant PC-12 cells, 10 μM plus NGF. The class given is cell-based, Rat. How it is done:
Differentiated PC-12/L286V cells were treated with increasing concentrations of this compound for 4 hours. Transfection was then initiated after this treatment period.
Transfection. PC-12 cells were cultured and differentiated on 60-mm dishes. At the end of the 10-day differentiation period, cells were transfected with 2 μg reporter constructs, TOPFLASH and FOPFLASH, per 60-mm dish. Transfections were performed using Superfect (Qiagen) according to manufacturer's instructions.
Luciferase Assays. Cells were lysed, 6 hours after transfections, in 100 μl of Cell Culture Lysis Reagent (Promega, Madison, Wis.), and scraped into microcentrifuge tubes. Tubes were then centrifuged briefly (about 10 seconds) at 12000 rpm to pellet cell debris. Luciferase activity was measured on 20 μl of cell lysate and 100 μl substrate from the Luciferase Assay System (Promega). Luciferase activity was measure using Packard LumiCount. (Hewlett Packard). Quantitation of luciferase was performed in triplicates, and repeated in at least three independent experiments.

In test [11] the test system is surviving protein. As to the kind of experiment: Survivin immunofluorescence microscopy in SW480 cells. Type of test: cell-based.

Sequence of β-catenin/CBP interaction (Q92793 whole entry): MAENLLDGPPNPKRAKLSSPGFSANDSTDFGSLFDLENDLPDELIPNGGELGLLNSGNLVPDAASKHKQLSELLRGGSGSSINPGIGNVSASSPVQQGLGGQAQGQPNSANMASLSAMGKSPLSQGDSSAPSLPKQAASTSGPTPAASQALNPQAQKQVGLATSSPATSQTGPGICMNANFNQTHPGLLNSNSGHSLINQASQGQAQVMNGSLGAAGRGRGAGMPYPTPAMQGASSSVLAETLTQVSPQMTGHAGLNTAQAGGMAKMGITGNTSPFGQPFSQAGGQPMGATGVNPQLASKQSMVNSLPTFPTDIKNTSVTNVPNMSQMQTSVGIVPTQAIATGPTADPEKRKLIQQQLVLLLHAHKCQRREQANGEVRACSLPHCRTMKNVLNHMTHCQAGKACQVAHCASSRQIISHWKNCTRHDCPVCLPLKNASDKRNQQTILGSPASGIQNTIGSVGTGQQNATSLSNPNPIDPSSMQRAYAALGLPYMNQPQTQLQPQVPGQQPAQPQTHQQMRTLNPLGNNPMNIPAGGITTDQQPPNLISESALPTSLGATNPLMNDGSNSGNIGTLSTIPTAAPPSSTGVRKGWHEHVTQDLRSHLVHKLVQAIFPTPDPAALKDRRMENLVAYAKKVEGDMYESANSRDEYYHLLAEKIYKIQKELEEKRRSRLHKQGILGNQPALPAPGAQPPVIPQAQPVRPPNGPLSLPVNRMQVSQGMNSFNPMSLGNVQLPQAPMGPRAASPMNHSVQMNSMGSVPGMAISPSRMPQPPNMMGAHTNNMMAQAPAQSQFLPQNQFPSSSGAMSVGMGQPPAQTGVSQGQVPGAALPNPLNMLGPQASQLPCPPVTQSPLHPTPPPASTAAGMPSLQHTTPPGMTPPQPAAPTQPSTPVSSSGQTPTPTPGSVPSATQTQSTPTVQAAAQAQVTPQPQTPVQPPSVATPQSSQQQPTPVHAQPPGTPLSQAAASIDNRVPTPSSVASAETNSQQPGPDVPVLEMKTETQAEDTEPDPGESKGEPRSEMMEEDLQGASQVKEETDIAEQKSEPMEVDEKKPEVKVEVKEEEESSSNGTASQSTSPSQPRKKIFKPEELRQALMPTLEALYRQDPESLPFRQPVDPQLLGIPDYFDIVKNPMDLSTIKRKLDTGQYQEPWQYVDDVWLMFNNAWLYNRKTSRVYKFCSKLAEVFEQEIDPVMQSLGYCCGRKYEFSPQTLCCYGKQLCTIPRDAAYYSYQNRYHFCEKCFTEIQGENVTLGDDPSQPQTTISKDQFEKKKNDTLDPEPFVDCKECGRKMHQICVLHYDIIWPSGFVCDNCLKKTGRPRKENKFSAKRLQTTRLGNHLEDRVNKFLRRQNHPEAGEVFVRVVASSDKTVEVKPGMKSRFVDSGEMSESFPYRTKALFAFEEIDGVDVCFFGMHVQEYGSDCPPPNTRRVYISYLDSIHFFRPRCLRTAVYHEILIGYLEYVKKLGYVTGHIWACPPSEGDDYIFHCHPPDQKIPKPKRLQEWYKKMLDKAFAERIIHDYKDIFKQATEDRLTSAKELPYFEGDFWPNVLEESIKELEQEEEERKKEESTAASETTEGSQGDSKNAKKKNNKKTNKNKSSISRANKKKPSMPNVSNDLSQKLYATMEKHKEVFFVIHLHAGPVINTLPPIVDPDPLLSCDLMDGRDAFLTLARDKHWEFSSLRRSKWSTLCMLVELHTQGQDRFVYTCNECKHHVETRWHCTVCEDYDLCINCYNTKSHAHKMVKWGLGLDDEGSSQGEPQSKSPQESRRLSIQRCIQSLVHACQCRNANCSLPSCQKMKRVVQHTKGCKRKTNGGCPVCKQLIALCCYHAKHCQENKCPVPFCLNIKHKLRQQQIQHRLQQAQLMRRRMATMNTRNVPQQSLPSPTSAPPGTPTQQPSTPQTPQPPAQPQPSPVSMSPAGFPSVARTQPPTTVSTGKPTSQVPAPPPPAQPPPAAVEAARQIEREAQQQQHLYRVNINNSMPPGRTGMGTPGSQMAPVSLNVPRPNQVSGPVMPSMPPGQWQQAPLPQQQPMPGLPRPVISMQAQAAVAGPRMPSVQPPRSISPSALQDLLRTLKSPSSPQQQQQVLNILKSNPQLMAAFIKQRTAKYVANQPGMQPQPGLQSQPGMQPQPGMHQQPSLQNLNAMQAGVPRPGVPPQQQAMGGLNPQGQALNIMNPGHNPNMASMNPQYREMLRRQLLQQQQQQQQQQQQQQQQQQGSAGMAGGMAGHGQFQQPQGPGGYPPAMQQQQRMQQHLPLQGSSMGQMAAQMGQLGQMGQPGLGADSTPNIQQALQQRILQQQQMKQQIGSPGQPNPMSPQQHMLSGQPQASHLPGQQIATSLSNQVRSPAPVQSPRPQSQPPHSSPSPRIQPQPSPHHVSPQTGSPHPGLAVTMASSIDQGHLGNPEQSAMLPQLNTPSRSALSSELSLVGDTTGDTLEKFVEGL
Sequence of β-catenin/p300 interaction (Q09472 whole entry): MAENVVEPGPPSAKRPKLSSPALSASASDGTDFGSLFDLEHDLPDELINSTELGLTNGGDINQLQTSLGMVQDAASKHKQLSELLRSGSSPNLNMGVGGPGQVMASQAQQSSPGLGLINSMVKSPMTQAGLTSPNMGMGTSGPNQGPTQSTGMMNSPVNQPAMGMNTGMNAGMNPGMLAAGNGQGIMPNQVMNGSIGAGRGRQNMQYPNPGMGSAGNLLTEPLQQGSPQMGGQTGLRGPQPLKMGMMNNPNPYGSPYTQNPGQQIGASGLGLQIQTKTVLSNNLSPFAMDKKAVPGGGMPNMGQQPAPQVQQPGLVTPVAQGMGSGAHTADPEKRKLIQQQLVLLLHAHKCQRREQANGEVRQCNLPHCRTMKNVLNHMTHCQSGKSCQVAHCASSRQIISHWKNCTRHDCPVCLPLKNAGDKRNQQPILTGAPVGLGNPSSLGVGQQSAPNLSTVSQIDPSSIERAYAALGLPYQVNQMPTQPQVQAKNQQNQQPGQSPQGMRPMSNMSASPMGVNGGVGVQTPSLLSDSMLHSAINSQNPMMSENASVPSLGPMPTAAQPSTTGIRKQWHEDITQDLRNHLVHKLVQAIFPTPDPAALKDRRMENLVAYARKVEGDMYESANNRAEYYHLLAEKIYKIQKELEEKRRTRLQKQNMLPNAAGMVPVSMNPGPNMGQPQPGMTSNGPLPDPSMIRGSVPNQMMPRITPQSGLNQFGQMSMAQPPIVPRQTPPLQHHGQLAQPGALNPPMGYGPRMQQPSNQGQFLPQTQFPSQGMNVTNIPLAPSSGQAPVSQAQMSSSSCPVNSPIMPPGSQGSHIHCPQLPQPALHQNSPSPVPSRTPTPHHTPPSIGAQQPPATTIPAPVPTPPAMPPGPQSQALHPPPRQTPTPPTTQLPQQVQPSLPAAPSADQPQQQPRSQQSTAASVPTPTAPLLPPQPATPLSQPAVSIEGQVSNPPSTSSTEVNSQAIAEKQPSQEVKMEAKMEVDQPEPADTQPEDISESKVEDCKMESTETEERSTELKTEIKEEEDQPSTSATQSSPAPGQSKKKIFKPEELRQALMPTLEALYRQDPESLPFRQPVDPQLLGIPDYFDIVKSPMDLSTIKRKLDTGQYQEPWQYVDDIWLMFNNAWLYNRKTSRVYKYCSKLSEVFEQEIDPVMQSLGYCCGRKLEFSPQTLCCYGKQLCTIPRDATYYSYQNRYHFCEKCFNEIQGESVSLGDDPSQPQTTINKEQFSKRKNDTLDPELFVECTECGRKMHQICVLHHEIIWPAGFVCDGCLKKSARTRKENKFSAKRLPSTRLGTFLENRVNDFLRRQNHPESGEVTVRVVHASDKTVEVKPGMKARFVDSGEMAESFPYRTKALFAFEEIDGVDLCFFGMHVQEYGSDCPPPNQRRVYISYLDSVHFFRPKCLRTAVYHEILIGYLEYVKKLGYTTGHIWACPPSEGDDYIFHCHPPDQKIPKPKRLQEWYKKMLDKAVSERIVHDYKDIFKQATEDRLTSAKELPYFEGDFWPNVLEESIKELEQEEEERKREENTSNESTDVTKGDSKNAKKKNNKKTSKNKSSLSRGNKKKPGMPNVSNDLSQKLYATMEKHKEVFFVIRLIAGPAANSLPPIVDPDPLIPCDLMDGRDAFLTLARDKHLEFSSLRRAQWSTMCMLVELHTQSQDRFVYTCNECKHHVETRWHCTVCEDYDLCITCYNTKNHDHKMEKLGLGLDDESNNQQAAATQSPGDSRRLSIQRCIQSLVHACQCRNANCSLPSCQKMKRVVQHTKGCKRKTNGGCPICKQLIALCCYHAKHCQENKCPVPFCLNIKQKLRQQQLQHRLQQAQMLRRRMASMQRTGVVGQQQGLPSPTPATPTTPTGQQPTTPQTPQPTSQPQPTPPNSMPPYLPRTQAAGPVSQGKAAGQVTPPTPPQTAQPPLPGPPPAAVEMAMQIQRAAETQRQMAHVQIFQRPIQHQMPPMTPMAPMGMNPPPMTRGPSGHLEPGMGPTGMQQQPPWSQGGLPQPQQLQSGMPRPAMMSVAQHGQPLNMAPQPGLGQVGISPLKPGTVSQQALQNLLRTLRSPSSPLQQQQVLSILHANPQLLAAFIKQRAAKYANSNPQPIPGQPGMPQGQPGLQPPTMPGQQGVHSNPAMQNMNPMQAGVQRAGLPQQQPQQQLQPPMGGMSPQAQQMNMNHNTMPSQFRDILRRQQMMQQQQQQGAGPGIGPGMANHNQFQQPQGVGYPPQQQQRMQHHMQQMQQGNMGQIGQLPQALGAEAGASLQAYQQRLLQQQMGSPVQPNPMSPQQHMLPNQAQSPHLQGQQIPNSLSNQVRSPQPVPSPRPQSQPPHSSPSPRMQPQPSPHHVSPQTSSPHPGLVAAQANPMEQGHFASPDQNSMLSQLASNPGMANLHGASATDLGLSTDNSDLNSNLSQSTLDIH

For the molecule `O=C1[C@H](Cc2ccc(O)cc2)N2C(=O)CCN(C(=O)NCc3ccccc3)[C@H]2CN1Cc1cccc2ccccc12` [Compound D], the “blocking of β-catenin/CBP interaction” value in test [1] is recorded as “selectively blocks the β-catenin/CBP interaction”. In addition, in test [2], the “number of colonies formed in soft agar” value is recorded as “dose dependent decrease in the number of colonies formed”. For the same molecule, the “Ratio (Treated/DMSO Control) GADPH” value in test [3] came to 0.98. Also, the “cell cycle distribution (FACS, PI)” value in test [4] and in test [5] was “increased accumulation at G1/S-phase of the cell cycle” each time. Also, in test [6], the caspase-3/7 activity result is “specifically and significantly activated the caspase-3/7 pathway”. The “Ratio (Treated/DMSO Control) PCNA” value in [7] is 0.33. Further, the “blocking of β-catenin/p300 interaction” value in test [8] was “not the β-catenin/p300 interaction”. In addition, the “Ratio (Treated/DMSO Control) Survivin” value in test [9] was 0.30. The “TCF/β-catenin reporter gene transcription” value in test [10] was “decreased TCF/β-catenin reporter gene transcription”. The “survivin protein (immunofluorescence microscopy)” value in test [11] is listed as “little or no surviving protein was detected”.
